Patent US9504699B2, “Delayed-release glucocorticoid treatment of rheumatoid disease” (Horizon Pharma AG, priority 2006, dated 2016)

Key:
Assay type in all cases: in vivo, human
[1] = system: adult RA patients; experiment: Phase III study, double-blind phase: adverse events
[2] = system: adult RA patients; experiment: 9-month open follow-up on Prednisone delayed-release: duration of morning stiffness; conditions: prednisone = all subjects
Excerpt: Although efficacy was not the main objective of this open follow-up study, the order of reporting was kept the same as in the previous study report on the double-blind phase. […] Mean Daily Duration of Morning Stiffness
The mean daily duration of morning stiffness at start of the double-blind period (Visit 2), at start of the open follow-up period (Visit 5) and at end of study (Visit 8) as well as the relative changes are presented in Table 10 and FIG. 2 for the study population.
Taking advantage of the higher number of available data, the interpretation of the results was carried out for the total numbers.

[3] = system: CRP; experiment: 9-month open follow-up: CRP; conditions: after 12 weeks double-blind, by group; prednisone = Total
Excerpt: The median values of the inflammatory signs CRP and IL-6 during the open follow-up period (Visit 5 to Visit 8) and the respective absolute changes are presented in Table 12 and FIG. 3.

[4] = 12-week double-blind phase, prednisone = Total
[5] = after 12 weeks double-blind, by group
[6] = subjects of open follow-up, by double-blind group

Structure (SMILES): C[C@]12C=CC(=O)C=C1CC[C@@H]1[C@@H]2C(=O)C[C@@]2(C)[C@H]1CC[C@]2(O)C(=O)CO [prednisone]
- All AEs (at least one treatment-emergent AE) ([1]; 12-week double-blind phase, label prednisone = Total of both groups (N = 288)): 118 (41.0) No. (%) subjects
- AE: Abdominal pain (Upper) [1, 4]: 13 (4.5) No. (%) subjects
- AE: Flushing [1, 4]: 10 (3.5) No. (%) subjects
- AE: Headache [1, 4]: 10 (3.5) No. (%) subjects
- AE: Nasopharyngitis (values printed on the line headed 'Upper') [1, 4]: 12 (4.2) No. (%) subjects
- AE: Nausea [1, 4]: 9 (3.1) No. (%) subjects
- AE: Rheumatoid arthritis [1, 4]: 24 (8.3) No. (%) subjects
- Drug-related AE: Abdominal pain (Upper) [1, 4]: 7 (2.4) No. (%) subjects
- Drug-related AE: Headache [1, 4]: 6 (2.1) No. (%) subjects
- Drug-related AE: Nausea (values printed on the line headed 'Upper') [1, 4]: 6 (2.1) No. (%) subjects
- Drug-related AE: Rheumatoid arthritis [1, 4]: 5 (1.7) No. (%) subjects
- SAEs ([1]; double-blind phase, both groups, 2.4%): Seven
- AEs causing discontinuation of prednisone ([1]; double-blind phase, both groups, 7.6%): 22 subjects
- SAE judged to be related to prednisone by the investigator ([1]; of the 7 subjects with SAEs): one
- Duration of morning stiffness, Visit 5 (Start of Follow-up Period), mean [2, 5]: 125.56 min
- Duration of morning stiffness, Visit 5 (Start of Follow-up Period), median [2, 5]: 83.93 min
- Duration of morning stiffness, Visit 2 (Start of Double-blind Period), mean [2, 6]: 169.80 min
- Duration of morning stiffness, Visit 2 (Start of Double-blind Period), median [2, 6]: 143.21 min
- CRP (median), Visit 5 (Start of Follow-up) [3]: 9.40 (n = 249) mg/L
